# Read-outs that look alike come from different tables or passages of the source.
# Experiments:
# [1] = system: HIV-1 (IIIB); assay: microbe, parasite or virus in culture; format: cell-based; settings: for EC50: Human immunodeficiency virus 1, IIIB, CCRF-CEM, read-out: EC50 (ug/ml) HIV-1; for EC50 / EC50 (ug/ml) HIV-1: CEM cells, syncytium formation, day four post infection; for HIV-1 % Protection: protection of CEM cells against virus-induced cytopathicity at the concentration in the previous column
# How it was run: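 Human T-lymphoblast CEM cells at roughly 300,000 cells per ml were infected with about 100 CCID50 of HIV-1 (IIIB). Then 100 μl of the infected suspension went into 200 μl microtiter wells holding 100 μl of 5-fold serial compound dilutions. Inhibition of syncytium formation was scored microscopically on day four post infection, and protection against virus-induced cytopathicity was recorded.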
# [2] = system: HIV-2 (ROD); assay: Inhibition of HIV-2 syncytium formation in CEM cells; format: cell-based; settings: for EC50: Human immunodeficiency virus 2, CCRF-CEM, read-out: EC50 (ug/ml) HIV-2; for HIV-2 % Protection: protection of CEM cells against virus-induced cytopathicity at the concentration in the previous column
# How it was run: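 Human T-lymphoblast CEM cells, suspended at roughly 300,000 cells per ml of culture medium, were infected with about 100 CCID50 of HIV-2 (ROD). Aliquots of 100 μl of infected cells were placed in 200 μl microtiter wells holding 100 μl of serial 5-fold compound dilutions, and syncytium formation was scored microscopically four days after infection.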
# [3] = system: Davis strain CMV; assay: Reduction of CMV-induced cytopathicity in HEL cells; format: cell-based, human cytomegalovirus (HCMV); settings: for Antiviral % Inhibition Davis strain CMV: estimate of percent protection at the concentration in the previous column; for EC50: read-out: Antiviral EC50 (ug/ml) Davis strain CMV
# How it was run: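 Confluent HEL cells were infected with 100 PFU/well CMV for 1–2 h, then washed and kept in MEM with 2% FCS and test compound. EC50 is the concentration cutting virus-induced cytopathicity by 50% versus untreated control at day 7. Where cytotoxicity interfered, percent protection at the stated concentration is given.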
# [4] = CEM cells, syncytium formation, day four post infection
# [5] = Human betaherpesvirus 5, 168 h, HEL cells, virus-induced cytopathicity after seven days
# [6] = HEL cells, virus-induced cytopathicity after seven days
EC50 [1] [µg/mL],"EC50 [2, 4] [µg/mL]","EC50 [3, 5] [µg/mL]",EC50 (ug/ml) HIV-1 [1],"EC50 (ug/ml) HIV-2 [2, 4]","Antiviral EC50 (ug/ml) Davis strain CMV [3, 6] [µg/mL]",SMILES,Antiviral % Inhibition Davis strain CMV ([3]; HEL cells) [%],HIV-2 % Protection [2] [%],HIV-1 % Protection [1] [%],EC50 [2] [µg/mL],"EC50 ([3]; Human betaherpesvirus 5, HEL, 168 h) [µg/mL]"
1,1.3,> 5,,,,"O=S(=O)(Cc1ccc(Cl)c(Cl)c1)c1cccc[n+]1[O-] [Compound 37, 2-(3,4-dichlorobenzylsulfonyl)-pyridine-N-oxide]",30.0,,,,
,,,5.50 µg/mL,5.0 µg/mL,10.0,CCc1ccc(CS(=O)(=O)c2cccc[n+]2[O-])cc1 [Compound 59],,,,,
,,,2.80 µg/mL,>100.0 µg/mL,>20,Cc1ccc(C)c(C(Cl)S(=O)(=O)c2cccc(C)[n+]2[O-])c1 (stereo not drawn) [Compound 73],40.0,0.0,,,
> 0.8,> 0.8,0.7,,,,"CCCCCCCC(c1cc(C)ccc1C)S(=O)(=O)c1cccc[n+]1[O-] (stereo not drawn) [Compound 7, 2-[1-(2,5-Dimethylphenyl)octylsulfonyl]pyridine N-oxide]",,0.0,0.0,,
,,,>20 µg/mL,>20 µg/mL,10.0,COc1ccc(C=C(C#N)Sc2cccc[n+]2[O-])cc1 [Compound 159],,25.0,0.0,,
,,,12.00 µg/mL,6.3 µg/mL,7.0,O=S(=O)(Cc1ccccc1F)c1cccc[n+]1[O-] [Compound 22],,,,,
,,,>4 µg/mL,>4.0 µg/mL,14.0,COc1ccc(C(c2ccccc2)S(=O)(=O)c2cccc[n+]2[O-])cc1OC (stereo not drawn) [Compound 61],,6.0,0.0,,
,,,>.8 µg/mL,>0.8 µg/mL,3.8,COc1ccc(C[S+]([O-])c2cccc[n+]2[O-])cc1 (stereo not drawn) [Compound 86],,0.0,0.0,,
> 0.8,> 0.8,> 20,,,,"O=S(=O)(c1ccc(Cl)c[n+]1[O-])C(Cl)c1ccccc1 (stereo not drawn) [Compound 114, 2-(Phenylchloromethylsulfonyl)-5-chloropyridine N-oxide]",20.0,0.0,0.0,,
,,,≧20 ug/ml,>20.0 µg/mL,8.6,Cc1ccc(C)c(C(C)S(=O)(=O)c2cc(C)cc(C)[n+]2[O-])c1 (stereo not drawn) [Compound 81],,0.0,37.5,,
,,,2.80 µg/mL,3.5 µg/mL,5.0,O=[N+]([O-])c1cc(CS(=O)(=O)c2cccc[n+]2[O-])cc([N+](=O)[O-])c1 [Compound 65],,,,,
,,,>20 µg/mL,>20.00 µg/mL,>20,[O-][n+]1cc(Cl)ccc1SCc1ccccc1 [Compound 151],20.0,0.0,0.0,,
,,,7.00 µg/mL,9.5 µg/mL,>5,N#Cc1ccccc1CS(=O)(=O)c1cccc[n+]1[O-] [Compound 24],30.0,,,,
> 0.8,> 0.8,11,,,,"Cc1ccc(C)c(C[S+]([O-])c2cccc[n+]2[O-])c1C (stereo not drawn) [Compound 97, 2-(2,3,6-Trimethylphenylmethylsulfinyl)pyridine N-oxide]",,0.0,0.0,,
,,,10.00 µg/mL,35.0 µg/mL,>50,COc1ccc(OC)c(CS(=O)(=O)c2cccc[n+]2[O-])c1 [Compound 47],20.0,,,,
,,,13.00 µg/mL,17.0 µg/mL,>50,[O-][n+]1ccccc1[S+]([O-])Cc1cccc(C(F)(F)F)c1 (stereo not drawn) [Compound 85],20.0,,,,
,,,9.00 µg/mL,16.0 µg/mL,20.0,[O-][n+]1c(Cl)cccc1SCc1ccccc1 [Compound 149],,,,,
0.65,> 100,> 20,,,,"CCc1cccc2c(C)cc(S(=O)(=O)C(C)c3ccccc3)nc12 (stereo not drawn) [Compound 107, 8-ethyl-4-methyl-2-[(1-phenylethyl)sulfonyl]-quinoline]",0.0,,,,
,,,11.70 µg/mL,6.3 µg/mL,10.0,O=S(=O)(Cc1cc2c(cc1Cl)OCO2)c1cccc[n+]1[O-] [Compound 21],,,,,
,,,16.00 µg/mL,2.5 µg/mL,23.0,"O=S(=O)(c1cccc[n+]1[O-])C(Cl)c1ccccc1 (stereo not drawn) [Compound 105, 2-(alpha-phenyl-alpha-chloromethylsulfonyl)pyridine-N-oxide]",,,,,
,,,1.90 µg/mL,5.0 µg/mL,>5,Cc1ccc([N+](=O)[O-])c(CS(=O)(=O)c2cccc[n+]2[O-])c1 [Compound 62],20.0,,,,
,,,2.10 µg/mL,3.0 µg/mL,11.5,Cc1ccc(C)c(C[S+]([O-])c2ccc(Cl)c[n+]2[O-])c1 (stereo not drawn) [Compound 153],,,,,
9,8,5,,,,"O=S(=O)(Cc1c(Cl)cccc1Cl)c1cccc[n+]1[O-] [Compound 17, 2-(2,6-Dichlorophenylmethylsulfonyl)pyridine N-oxide]",,,,,
,,,2.30 µg/mL,≧20 ug/ml,40.0,O=[N+]([O-])c1ccc[n+]([O-])c1SCc1ccccc1 [Compound 146],,37.5,,,
,,,≧20 ug/ml,14.0 µg/mL,20.0,COc1ccc(CS(=O)(=O)c2cccc[n+]2[O-])cc1 [Compound 19],,,37.5,,
,,,2.40 µg/mL,2.5 µg/mL,5.0,O=S(=O)(Cc1ccc(Cl)cc1Cl)c1cccc[n+]1[O-] [Compound 18],,,,,

SMILES,EC50 [1] [µg/mL],"EC50 [2, 4] [µg/mL]","EC50 [3, 5] [µg/mL]",EC50 (ug/ml) HIV-1 [1],"EC50 (ug/ml) HIV-2 [2, 4]","Antiviral EC50 (ug/ml) Davis strain CMV [3, 6] [µg/mL]",Antiviral % Inhibition Davis strain CMV ([3]; HEL cells) [%],HIV-2 % Protection [2] [%],HIV-1 % Protection [1] [%],EC50 [2] [µg/mL],"EC50 ([3]; Human betaherpesvirus 5, HEL, 168 h) [µg/mL]"
O=S(=O)(Cc1ccccc1Cl)c1cccc[n+]1[O-] [Compound 15],,,,6.00 µg/mL,7.0 µg/mL,5.0,,,,,
Cc1ccc(C)c(CSc2ccccn2)c1.Cl [Compound 157],,,,6.00 µg/mL,≧20 ug/ml,>50,0.0,37.5,,,
"O=S(=O)(Cc1c(Cl)c(Cl)c(Cl)c(Cl)c1Cl)c1cccc[n+]1[O-] [Compound 32, 2-(Pentachlorobenzylsulfonyl)-pyridine-N-oxide]",0.63,,,,,,,,,1,14

# — US7064139B2, “Method for treating retroviral infections” (Uniroyal Chemical Company, Inc., priority 2001, dated 2006)
